One assay has as its system LPS (serotype O55;B5). The experiment in a line: LPS binding, tandem weak anion exchange / reverse phase columns with varied wash volumes. The settings on record: for wash volumes of column 1 needed to reduce peak by 50%: 1 CV=1.66 ml, 50 mM Tris pH 6.7; for retention on weak anion exchange column 1: with/without preincubation with LPS. An excerpt: We used a tandem column method employing POROS™ columns on a BioCAD™ 20 Workstation. Column 1 was a weak anion exchange column (PI/M; 4.6×100 mm) while column 2 was a reverse phase column (R2/H; 4.6×100 mm). […] LPS, however, would be expected to interact with this column due to the presence of two charged phosphate groups at the lipid A region of the molecule. […] Material retained on column 1 was eluted directly onto column 2 where it was captured. Elution of column 2 allowed the resolution of peaks arising from column 1.
Screening the library for binding to LPS was performed as follows. The cationic fraction of the XXXFL library was incubated (30 min/RT) with 1-3 mg/ml of LPS (serotype O55;B5; Sigma Chemical Co., St. Louis, Mo.) in 50 mM Tris, pH 6.7. At this time the incubation mixture was injected and run over column 1 on the BioCAD™ Workstation (equilibrated in the same buffer). The column was run at 4 ml/min. After washing with the appropriate number of column volumes of equilibration buffer (1 CV=1.66 ml), the column was purged and eluted (using 8 mM HCl, 1M NaCl) directly onto column 2 by switching the latter column in line with column 1 during the elution process. Material captured on column 2 was eluted using a gradient from 12 mM HCl in water to 80% ACN, 6 mM HCl. Peaks were collected, further purified by rerunning on a vydac C-18 column (4.6×250 mm), and analyzed by Mass Spectrometry (on a Voyager™ MALDI-TOF instrument; PerSeptive Biosystems, Framingham, Mass.) and peptide sequencing (Hewlett Packard). Peptides identified were synthesized and binding of these molecules to the Lipid A region of the LPS was confirmed by measuring the ability of PmxB or Pentamidine to compete with the peptide for this site.
The number of wash volumes required to reduce the peak for these agents correlated with the reported affinities of these agents for LPS; PmxB (Kd […]) was reduced 50% after 42 CVs washing of column 1 while pentamidine (Kd 100 nM) required a higher number of washes for a similar reduction (46 CVs). Using this methodology we could rapidly examine which peaks from the library were capable of binding to LPS with the highest affinity since, upon exposure to higher numbers of wash volumes only the peptides with higher affinity for the target were retained. […] Three such peaks from the XXXFL library and 3 peaks from the CXXXC library were further purified and characterized by MS and peptide sequencing. […] The other peptides will be synthesized and studied in a similar manner although another approach being considered is that a sublibrary of the format ZZZFL (where Z represents either R or K) be screened to identify the member with the highest affinity. Candidates purified from the cyclic library are still awaiting sequencing.

The target of a further assay is LPS. The settings on record: read-out: Kd for LPS (reported affinity); cited from earlier work.
The test system of another assay is mouse IgG (Fc fragment). The experiment in a line: Solution phase peptide screening (SEC - reversed phase) of protein A and G digests. Format: binding. The settings on record: native and denatured recombinant protein A and G digests. On the procedure:
5 mg each of either mouse IgG (whole) or the Fc fragment was incubated with 20 mg of natural library and protein A and G digests, respectively. The mixture was dissolved in 1 ml of a mixture of 25 mM sodium phosphate buffer and 0.15 M NaCl (pH 7) overnight at 4° C. After incubation, several chromatographic runs through the Superdex SEC and RP columns were conducted with 200 of the protein and peptide mixture injected through the Superdex column during each run. The flow rate for the Superdex column was 0.75 m/min with the 25 mM sodium phosphate buffer and 0.15 M NaCl (pH 7) mixture. The early eluting protein peak was collected directly onto the RP column. The remaining portion of the peak was washed off the SEC. The mouse IgG (whole) or Fc fragment and its associated peptides were then eluted from the RP column under the following conditions:
Fractions corresponding to bound peptide peaks were lyophilized and redissolved in 1001 of 0.1% TFA/DIW for mass spec analysis by MALDI-TOF.

The next assay deals with IgG. The assay is described as follows: IgG purification from human serum on POROS-immobilized peptide column. Format: binding. How it is done: 1 g POROS™ AL (aldehyde) was suspended in 10 mM PBS (pH 7.5) containing 100 mg sodium cyanoborohydride (NaCNBH3). 5 to 20 mg of each of the peptides selected by various screening procedures was added to the resin and the mixture was shaken overnight at room temperature. 100 mg sodium borohydride (NaBH4) was then added and the mixture was shaken for another 2 hrs. The beads were then washed with PBS and packed into 4.6 mm D×100 mm L column using POROS™ Self Pack® device.
100 μl of 1:10 diluted serum was injected onto the peptide column which was equilibrated with 20 mM tris (pH 8.0) at 5 ml/min. The bound proteins were eluted with 0-1 M NaCl gradient in 15 CVs. Fractions were collected manually and concentrated by Speed Vac for subsequent analysis by SDS-polyacrylamide gel electrophoresis.
The […] (SEQ ID NO: 8) peptide with heme group was immobilized on POROS™AL® (aldehyde) via the N-terminal end. This POROS™-peptide conjugate was used to separate IgG from serum at pH 8 under a 0-1 M NaCl gradient. […] To determine the nature of interaction, the purification profile of IgG separated on the POROS™-peptide column was compared with the IgG purified on standard ion exchange columns such as POROS™-CM and POROS™ HQ. […] The effect of the varying loading densities of peptide (from 10 mg/g POROS™ to 100 mg/g POROS™) on specificity and capacity for IgG binding was also investigated. The specificity of the peptide for IgG binding was also investigated. […] At low loading density (10 mg/g POROS™) IgG bound primarily via ionic interaction requiring elution of bound IgG with salt gradient. At higher loading density ([…]) IgG bound strongly and eluted with acid buffer. The binding capacity varied from 1-2 mg/ml column volume at lower ligand density to 30 mg/ml column volume at higher ligand densities.
A simplified analog of the heme peptide ([…]) (SEQ ID NO: 9) was synthesized and immobilized on POROS™ AL via the N-terminal end. […] The bound IgG was eluted from the GAQGHTVBK (SEQ ID NO: 9)-POROS™ column with 100 mM NaCl. The IgG binding capacity was determined to be 5 mg/ml column volume. Loading densities from 20 mg/g to 40 mg peptide /g POROS™ were evaluated. At these ligand densities, the specificity of IgG binding was not affected, but the capacity was reduced.

The subject of assay [1] is monoclonal antibody (mouse IgG2a, clone 3E-7) raised against human β-endorphin. The assay is described as follows: Peptide binding to immobilized anti-β-endorphin mAb affinity column in tandem with C-18 column. On the procedure:
The purchased mAb (280 mg resuspended in 1 ml H2O) was passed over an XL cartridge (2.1×30 mm) consisting of protein-G coupled to POROS™ perfusion chromatographic media (PerSeptive Biosystems, Framingham, Mass.) by making […] injections on a BioCAD™ 20 Workstation (PerSeptive Biosystems, Framingham, Mass.). Protein-G binds to the Fc region of antibodies with high affinity. The mAb was subsequently cross-linked to the protein G using the standard methods and materials provided with the XL column. In brief, this consisted of passing 14 ml of cross-linking solution (100 mM triethanolamine, pH 8.5, 7.8 mg/ml dimethyl pimelimidate (DMP)) over the column at a flow rate of 0.5 ml/mm. The cross-linking reagent was quenched by subsequent injection of 2 ml of 100 mM monoethanolamine, pH 9.0. The sensor cartridge was washed with PBS, pH 7.4 at 0.5 ml/min for 2 min followed by a further injection of 2 ml of quench solution and washed as above. […] A second XL column (without antibody) was treated with cross-linking reagents and washed as for the affinity column for use as a “control column”.
The target immobilized affinity column prepared above was plumbed in tandem mode to a vydac reversed phase C-18 column on a BioCAD™ Workstation using the configuration shown in FIG. 5. This configuration allowed independent equilibration and washing of the affinity and vydac columns while allowing in line elution of material bound to the mAb-column directly onto the vydac column. The reverse phase vydac column could then be eluted independently of the affinity column.
This reversed phase column was then developed with a gradient of acetonitrile (4% ACN/12 mM HCl to 80% ACN/6 mM HCl over 18 min; flow rate 1 ml/min). Both columns were re-equilibrated in their respective starting buffers prior to the next injection.
The peptide solution (20 nmol) was injected onto the affinity column and then unbound peptide was removed by washing the column with PBS, pH, 7.4. Peptides affinity captured by the antibody was eluted from the “target column” directly onto the C-18 column for resolution.

Assay [2] addresses Monoclonal antibody (mAb), mouse IgG2a, clone 3E-7, raised against human β-endorphin (mouse). The assay is described as follows: 20 nmol peptide injected on immobilized mAb column, acid eluted onto C-18 column; peak area.
For assay [3] the target is unchanged. The assay is described as follows: increasing quantities of peptide injected on immobilized mAb column; peak height on C-18 column.
The target of assay [4] is human IgG (whole), pure or from human serum (human). The assay is described as follows: peptide immobilized on POROS AL via the N-terminal end; IgG binding capacity of the column.

As for `N=C(N)c1ccc(OCCCCCOc2ccc(C(=N)N)cc2)cc1` [pentamidine], in the assay with LPS (serotype O55;B5), the “wash volumes of column 1 needed to reduce peak by 50%” value is 46 CVs and the “retention on weak anion exchange column 1” value is “retained on column 1 under the conditions used only after preincubation in the presence of LPS”. Further, at LPS, the Kd is 100 nM. Consider “EKEPEVID (OTHER INFORMATION: Description of Artificial Sequence: Protein fragment derived from the tryptic digest of protein A and G) [peptide from recombinant Protein G digest]”, for which the “selected as binder in solution phase screening” value in the assay on mouse IgG (Fc fragment) was “identified”. Still for that read-out and setting: the entry for “GDAPTPEKEPEASI (OTHER INFORMATION: Description of Artificial Sequence: Protein fragment derived from the tryptic digest of protein A and G) [peptide from recombinant Protein G digest]” is “identified”. Regarding “KKRFL (OTHER INFORMATION: Description of Artificial Sequence: synthetic peptide)”, the “affinity for LPS relative to Pentamidine” value with LPS (serotype O55;B5) is reported as “much lower than the latter molecule”. For the same molecule, the “competition for LPS binding” value in the assay on LPS (serotype O55;B5) (competition experiment with Pentamidine) is on record as “displaced by Pentamidine”. For the same molecule, in the assay on LPS (serotype O55;B5) (synthesized peptide, same paradigm), the “binding to LPS” value is on record as “demonstrated to bind to LPS”.

Regarding “TVTEK (OTHER INFORMATION: Description of Artificial Sequence: Protein fragment derived from the tryptic digest of protein A and G)”, in the assay with IgG (salt gradient suffices for elution), the “IgG binding affinity relative to proteins A & G” value was “bind IgG, but with less affinity”.

On to “TVTEKPE (OTHER INFORMATION: Description of Artificial Sequence:Protein fragment derived from the tryptic digest of protein A and G) [peptide from recombinant Protein G digest]”, for which, in the assay on mouse IgG (Fc fragment), the “selected as binder in solution phase screening” value is on record as “identified”. Take “TVTEKPEV (immobilized on POROS; OTHER INFORMATION: Description of Artificial Sequence: Synthetic peptide corresponding to a part of the Fc binding domain of recombinant protein G)”: in the assay with IgG (pH 8, immobilized on POROS via N-terminal end), the “specificity of IgG binding from human serum” value is “comparable specificity as the POROS™-Protein A conjugate”. In the case of “YEYFL (OTHER INFORMATION: Description of Artificial Sequence: synthetic peptide)”, in assay [1] (parallel experiment), the “retention by the mAb affinity column” value is listed as “not retained”. On to YGGFL, for which, in assay [1] (20 nmol injected, PBS pH 7.4 wash, eluted onto C-18), the “amount of the peptide recovered from affinity column, calculated from peak area” value is recorded as “approximately 1.2 nmoles”. Besides, the “effect of injection flow rate on amount of peptide bound/recovered” value in assay [1] (flow rate 0.2 ml/min to 5 ml/min) is “did not affect the recovery”. Further, the “amount of bound peptide at saturation, calculated from peak height” value in assay [1] (increasing quantities injected) is “about 1.2 nmoles”. For the molecule polymyxin B, in the assay with LPS (serotype O55;B5), the “wash volumes of column 1 needed to reduce peak by 50%” value stood at 42 CVs and the “retention on weak anion exchange column 1” value was “retained on column 1 under the conditions used only after preincubation in the presence of LPS”.

synthetic peptide YGGFL (SEQ ID NO: 1) came in with an amount of the peptide recovered in assay [2] of 1.2 nmol. The amount of the bound peptide at saturation in assay [3] worked out at 1.2 nmol. For GAQGHTVEK [… (SEQ ID NO: 9), simplified analog of the heme peptide], in assay [4], the IgG binding capacity (mg/ml column volume) was 5.

Broadly, the Kd is the free concentration of one partner at which half of the binding sites on the other are occupied at equilibrium, for simple one-to-one binding.
